The text below walks through data of patent US8623864B2, “Thioridazine and derivatives thereof for reversing anti-microbial drug-resistance” (NOA Sic Aps, priority 2003, dated 2014).

Where two headings read alike, the source gives them in different places.

The test system of one experiment is Enterococcus faecalis. Description: Microdilution checkerboard, antibiotic plus resistance modifier. It counts as cell-based. In general terms: In broth dilution the organism is exposed to a series of concentrations in liquid medium.
The test system of experiment [1] is human Enterococcus faecalis. The experiment is described as above. It counts as cell-based. The conditions noted are these: Enterococcus faecalis, drug alone.
Experiment [2] concerns a common bacterial strain. Description: MIC of oxacillin alone and combined with thioridazine. It counts as cell-based. As to conditions: read-out: effective MIC.
In experiment [3] the test system is Mycobacterium tuberculosis. The conditions noted are these: Ordway et al. 2003; cited from earlier work.
Another experiment deals with a known bacterial strain. Description: MIC of erythromycin and thioridazine, alone and combined. It counts as cell-based.
The next experiment deals with tumour cell lines. As to conditions: Akiyama et al. 1986; cited from earlier work.
The mark [4] stands for this setting: strain A, each drug in the combination AMP + PCP.
The mark [5] stands for this setting: strain A, each drug in the combination AMP + THIO.
Setting [6] is: strain B, each drug in the combination AMP + PCP.
[7] abbreviates: strain B, each drug in the combination AMP + THIO.
The mark [8] stands for this setting: strain C, each drug in the combination AMP + PCP.
Setting [9] is: strain C, each drug in the combination AMP + THIO.
The mark [10] stands for this setting: strain D, each drug in the combination AMP + PCP.
The mark [11] stands for this setting: strain D, each drug in the combination AMP + THIO.
The mark [12] stands for this setting: strain E, each drug in the combination AMP + PCP.
Where [13] appears, read: strain E, each drug in the combination AMP + THIO.
Setting [14] is: strain A, read-out: MIC of single drug (microdilution checkerboard).
Setting [15] is: strain B, read-out: MIC of single drug (microdilution checkerboard).
The mark [16] stands for this setting: strain C, read-out: MIC of single drug (microdilution checkerboard).
[17] abbreviates: strain D, read-out: MIC of single drug (microdilution checkerboard).
Where [18] appears, read: strain E, read-out: MIC of single drug (microdilution checkerboard).
Setting [19] is: strain A, each drug in the combination VAN + THIO.
[20] abbreviates: strain B, each drug in the combination VAN + THIO.
[21] abbreviates: strain C, each drug in the combination VAN + THIO.
Setting [22] is: strain D, each drug in the combination VAN + THIO.
[23] abbreviates: strain E, each drug in the combination VAN + THIO.
The mark [24] stands for this setting: strain A, each drug in the combination VAN + PCP.
[25] abbreviates: strain B, each drug in the combination VAN + PCP.
Setting [26] is: strain C, each drug in the combination VAN + PCP.
[27] abbreviates: strain D, each drug in the combination VAN + PCP.
[28] abbreviates: strain E, each drug in the combination VAN + PCP.

Take `CC1(C)S[C@@H]2[C@H](NC(=O)[C@H](N)c3ccccc3)C(=O)N2[C@H]1C(=O)O` [ampicillin]: the “Combination of drugs (MIC)” value in the experiment with Enterococcus faecalis (setting [4]) was 32 µg/mL; in the experiment with Enterococcus faecalis (setting [5]) it was 1 µg/mL; with Enterococcus faecalis (setting [6]) it was 0.5 µg/mL; in the experiment on Enterococcus faecalis (setting [7]), 0.5 µg/mL; with Enterococcus faecalis (setting [8]), 8 µg/mL; in the experiment with Enterococcus faecalis (setting [9]), “AMP (4) + THIO (4) μg/ml”. Also, the “Combination of drugs (MIC)” value was determined as 0.25 µg/mL in the experiment with Enterococcus faecalis (setting [10]), 0.25 µg/mL in the experiment with Enterococcus faecalis (setting [11]), 64 µg/mL in the experiment on Enterococcus faecalis (setting [12]) and 16 µg/mL in the experiment with Enterococcus faecalis (setting [13]). The MIC (commonly the lowest concentration found to suppress growth) in experiment [1] (setting [14]) worked out at 32 µg/mL; in experiment [1] (setting [15]), 2 µg/mL; in experiment [1] (setting [16]), 16 µg/mL; in experiment [1] (setting [17]) it was 1 µg/mL; in experiment [1] (setting [18]), 128 µg/mL.
Consider `Cc1onc(-c2ccccc2)c1C(=O)N[C@@H]1C(=O)N2[C@@H]1SC(C)(C)[C@@H]2C(=O)O` [oxacillin], for which the minimal inhibitory concentration (MIC) in experiment [2] (combined with 8 μg/ml of thioridazine) was 1 µg/mL; in experiment [2] (oxacillin alone, common bacterial strain), above 256 µg/mL.
With `CSc1ccc2c(c1)N(CCC1CCCCN1C)c1ccccc1S2` (racemic) [THIO, thioridazine], in experiment [3], the “Ability to kill bacteria in vitro” value is on record as “kill Mycobacterium tuberculosis in vitro”. The “Combination of drugs (MIC)” value in the experiment on Enterococcus faecalis (setting [5]) was 16 µg/mL; in the experiment on Enterococcus faecalis (setting [19]), 8 µg/mL; in the experiment on Enterococcus faecalis (setting [7]), 8 µg/mL; in the experiment on Enterococcus faecalis (setting [20]), 32 µg/mL; in the experiment with Enterococcus faecalis (setting [9]), “AMP (4) + THIO (4) μg/ml”; in the experiment on Enterococcus faecalis (setting [21]) it was 4 µg/mL. Besides, the “Combination of drugs (MIC)” value in the experiment with Enterococcus faecalis (setting [11]) is 4 µg/mL; in the experiment with Enterococcus faecalis (setting [22]), 8 µg/mL; in the experiment on Enterococcus faecalis (setting [13]), 8 µg/mL; in the experiment with Enterococcus faecalis (setting [23]) it was 2 µg/mL. For the same compound, the minimal inhibitory concentration (MIC) was found to be 32 µg/mL in experiment [1] (setting [14]); 32 µg/mL in experiment [1] (setting [15]); 32 µg/mL in experiment [1] (setting [16]); 32 µg/mL in experiment [1] (setting [17]); 32 µg/mL in experiment [1] (setting [18]); 16 µg/mL in the experiment on a known bacterial strain. For the same compound, in the experiment with tumour cell lines, the “Reversal of resistance to antineoplastic agents” value was “effective in reversing resistance to a variety of antineoplastic agents”.
In the case of `CC[C@H]1OC(=O)[C@H](C)[C@@H](O[C@H]2C[C@@](C)(OC)[C@@H](O)[C@H](C)O2)[C@H](C)[C@@H](O[C@@H]2O[C@H](C)C[C@H](N(C)C)[C@H]2O)[C@](C)(O)C[C@@H](C)C(=O)[C@H](C)[C@@H](O)[C@]1(C)O` [Erythromycin], in the experiment on a known bacterial strain, the minimum inhibitory concentration (MIC) amounted to 24 µg/mL. Also, the “Erythromycin concentration needed in combination” value in the experiment with a known bacterial strain (combined with 12 μg/ml of the levorotatory isomer of thioridazine) was 1 µg/mL; in the experiment on a known bacterial strain (combined with 12 μg/ml of thioridazine in racemic form), “less than 8 μg/ml”.
On to `CN1CCN(CCCN2c3ccccc3Sc3ccc(Cl)cc32)CC1` [PCP, prochlorperazine], for which the “Combination of drugs (MIC)” value amounted to 0.25 µg/mL in the experiment on Enterococcus faecalis (setting [4]); 16 µg/mL with Enterococcus faecalis (setting [24]); 16 µg/mL in the experiment on Enterococcus faecalis (setting [6]); 16 µg/mL in the experiment with Enterococcus faecalis (setting [25]); 0.5 µg/mL in the experiment on Enterococcus faecalis (setting [8]); 8 µg/mL with Enterococcus faecalis (setting [26]). Further, the “Combination of drugs (MIC)” value in the experiment on Enterococcus faecalis (setting [10]) was found to be 8 µg/mL; in the experiment with Enterococcus faecalis (setting [27]) it was 8 µg/mL; in the experiment on Enterococcus faecalis (setting [12]) it was 16 µg/mL; in the experiment on Enterococcus faecalis (setting [28]), 8 µg/mL. Besides, the MIC in experiment [1] (setting [14]) is 32 µg/mL; in experiment [1] (setting [15]), 64 µg/mL; in experiment [1] (setting [16]), 32 µg/mL; in experiment [1] (setting [17]), 32 µg/mL; in experiment [1] (setting [18]), 32 µg/mL.
Turning to `CN[C@H](CC(C)C)C(=O)N[C@H]1C(=O)N[C@@H](CC(N)=O)C(=O)N[C@H]2C(=O)N[C@H]3C(=O)N[C@H](C(=O)N[C@H](C(=O)O)c4cc(O)cc(O)c4-c4cc3ccc4O)[C@H](O)c3ccc(c(Cl)c3)Oc3cc2cc(c3O[C@@H]2O[C@H](CO)[C@@H](O)[C@H](O)[C@H]2O[C@H]2C[C@](C)(N)[C@H](O)[C@H](C)O2)Oc2ccc(cc2Cl)[C@H]1O` [vancomycin], the “Combination of drugs (MIC)” value was determined as 48 µg/mL in the experiment with Enterococcus faecalis (setting [24]); 6 µg/mL with Enterococcus faecalis (setting [19]); 1 µg/mL in the experiment on Enterococcus faecalis (setting [25]); 2 µg/mL with Enterococcus faecalis (setting [20]); 64 µg/mL in the experiment on Enterococcus faecalis (setting [26]); 64 µg/mL in the experiment with Enterococcus faecalis (setting [21]). The “Combination of drugs (MIC)” value in the experiment on Enterococcus faecalis (setting [27]) came to 32 µg/mL; with Enterococcus faecalis (setting [22]), 32 µg/mL; in the experiment on Enterococcus faecalis (setting [28]), 0.5 µg/mL; in the experiment on Enterococcus faecalis (setting [23]), 1 µg/mL. The minimal inhibitory concentration (MIC) in experiment [1] (read-out: MIC of single drug (microdilution checkerboard), strain A) was found to be 192 µg/mL; in experiment [1] (read-out: MIC of single drug (microdilution checkerboard), strain B) it was 4 µg/mL; in experiment [1] (read-out: MIC of single drug (microdilution checkerboard), strain C), 128 µg/mL; in experiment [1] (read-out: MIC of single drug (microdilution checkerboard), strain D), 500 µg/mL; in experiment [1] (read-out: MIC of single drug (microdilution checkerboard), strain E), 2 µg/mL.
